Data on one compound can be found in patent publication US7195752B2, “Surfactant compounds and uses thereof” (Glaxo Group Limited, priority 2001, dated 2007).

Series [1] can be described thus: Particle size by image analysis (Galai CIS-100) of salmeterol xinafoate HFA 134a suspension. The format is physicochemical. The conditions noted are these: salmeterol xinafoate 25 μg per actuation in HFA 134a, 10% w/w (relative to drug) surfactant; mean of 4 determinations. On the procedure: (§1) Salmeterol xinafoate formulations in HFA 134a, of strength 25 μg per actuation, and 10% w/w (relative to drug) of the relevant surfactant compound of formula (I) were prepared using salmeterol xinafoate (5.8 mg), HFA 134a (12 g) and the relevant compound (0.58 mg). The control was prepared without the addition of a surfactant.
In this measurement, particle size is represented as the equivalent diameter of a circle of equal area to the object. The mean is the average of 4 determinations. The particle size measurement was obtained by transferring the suspensions to a presurised cell, and video-imaging the sample under shear via a microscope objective.
The equivalent diameter is defined as the diameter of a circle of equal area to the object.
The mean equivalent diameter can be weighted by number, length or volume. e.g. For three particles with equivalent diameters of x, y and z: […]

Series [2] in a line: Content uniformity by dose through use testing of salmeterol xinafoate HFA 134a inhalers. The series is classed as physicochemical. Conditions: 10% w/w surfactant. On the procedure:
as §1
The content uniformity of the formulation, the preparation of which is described above, was assessed by dose through use testing. Testing was performed on 10 cans/inhalers at “beginning of use” (BoU) and “end of use” (EoU). After each inhaler had been primed (4 shots fired to waste), actuations 1 and 2 (BoU) were collected. The next 116 actuations of each inhaler were then fired to waste using an automated method and actuations 119 and 120 (EoU) collected.
The assesment of content uniformity was performed intially (following sample preparation). The results are quoted in Table 2 as the mean of the two BoU actuations for 10 inhalers (1+2 for 10 inhalers) and the mean of two EoU actuations for the said 10 inhalers (119+120 for the same 10 inhalers) together with the percentage relative standard deviation (% RSD).

Turning to `O=C(O)COCCCCCCC(F)(F)C(F)(F)F` [Example 5, [(7,7,8,8,8-Pentafluorooctyl)oxy]acetic acid], the “Mean Length weighted diameter” value in series [1] was 13.8 μm. Further, the “rise in dose from beginning to end of use” value in series [2] (EoU minus BoU dose, 10 inhalers, salmeterol xinafoate in HFA 134a) is 1.8 µg. In series [2] (beginning of use, mean of actuations 1+2 for 10 inhalers, salmeterol xinafoate 25 μg per actuation in HFA 134a, initial), the BoU dose amounted to 19.0 µg. In addition, in series [2] (end of use, mean of actuations 119+120 for 10 inhalers, salmeterol xinafoate 25 μg per actuation in HFA 134a, initial), the EoU dose came to 21.8 µg.
